According to US8853226B2, “Tricyclic compounds as modulators of TNF-α synthesis and as PDE4 inhibitors” (High Point Pharmaceuticals, LLC, priority 2008, dated 2014):
pIC50: −log10 of the molar value. Counter-ions that a name gives are not always drawn.

Tests used:
[1] = target: PDE4D (Homo sapiens (Human), UniProt Q08499); assay: PDE4 Inhibition Assay (TR-FRET IMAP, FAM-cAMP substrate); assay type: biochemical; details: 100 nM cAMP, 30° C., 90 minutes
Procedure: (§1) A TR-FRET-based phosphodiesterase assay kit from “Molecular Devices” was used to test whether these compounds were indeed direct inhibitors of the PDE4 enzyme. Using Roflumilast as a positive control, compounds of the present invention were tested against fluorescein-labeled cAMP substrate. The principle of the assay is based on the binding of a nucleotide monophosphate generated upon cAMP conversion to 5′ AMP by PDE to an “IMAP binding reagent”, which in turn is also ligated to a separate complex carrying terbium (Tb)-donor molecule. Proximity of the fluoreceinated 5′AMP to the Tb donor generates Fluorescence Resonance Energy Transfer. A PDE inhibitor will reduce the conversion of cAMP to 5′AMP, thus reducing monophosphate that can bind to the IMAP binding reagent and reduce the resulting FRET signal.
(§2) The assay buffer was prepared by diluting 5× supplied Tween-based buffer in 1:5 in water to make 1× buffer. Add desired additive to buffer (DTT or MnCl2). In a separate 96-well polypropylene plate, compound dilutions were prepared in assay buffer. Separate microcentrifuge tubes were prepared of PDE4B and PDE4D according to assay template—in assay buffer. The tubes were kept on ice. The enzyme concentration shown on the template were diluted by 1:4. FAM-cAMP substrate solution was prepared according to assay template. 5 μl compound was transferred from polypropylene plate into black 384-well plate. This plate was centrifuged briefly to make sure all 5 μl is on the bottom. Up to 80 μl of prepared PDE4B enzyme solution was transferred into alternate wells on row ‘N’ of 384-well plate starting from cell N1. Up to 80 μl of prepared PDE4D enzyme solution was transferred into alternate wells on row ‘O’ of 384-well plate, starting from cell O2. cAMP substrate solution was transferred into bottom row of separate 96-well plate. 5 μl of enzyme solution from the “reservoir” row (N or O) was transferred to each of the wells containing compounds, per layout map. Next, 10 μl of cAMP substrate was transferred to these wells. The order of substrate-first or enzyme-first can be switched depending on what is optimal. The final cAMP concentration was 100 nM in the reaction. 20 μl of assay buffer was pipetted into 4 separate wells—these are the blanks. The plate was sealed with an aluminum strip and incubated at 30° C. for 90 minutes. A TR-FRET solution was prepared. […]. 25 μl ( 1/800 of 20 ml) of binding beads was added to this and mix by inverting. 60 μl of this mixture was pipetted into 2 of the wells containing the “blank” assay buffer. Next, 49.7 μl ( 1/400 of remaining volume) of Tb donor solution was added to the remaining TR-FRET solution and mixed by inverting. 60 μl of this solution was pipetted into remaining 2 “blank” assay buffer-containing wells. The TR-FRET solution was poured into a pipette boat and a multichannel pipette was used to drop 60 μl of solution into all assay wells. The wells were covered with a foil strip and incubated for at least 3 hours or overnight protected from light (e.g. in a drawer) at room temperature. The plate was read on the Envision Reader: Emission 1: 520/Emission 2: 486/Exc: 340. Mirror: Umbelliferone (UV).

[2] = target: PDE4B2 (Homo sapiens (Human), UniProt Q07343); assay: as above; assay type: biochemical; details: 100 nM cAMP, 30° C., 90 minutes
Procedure: as §1, §2

PDE4D, sequence (Q08499 whole entry, species assumed): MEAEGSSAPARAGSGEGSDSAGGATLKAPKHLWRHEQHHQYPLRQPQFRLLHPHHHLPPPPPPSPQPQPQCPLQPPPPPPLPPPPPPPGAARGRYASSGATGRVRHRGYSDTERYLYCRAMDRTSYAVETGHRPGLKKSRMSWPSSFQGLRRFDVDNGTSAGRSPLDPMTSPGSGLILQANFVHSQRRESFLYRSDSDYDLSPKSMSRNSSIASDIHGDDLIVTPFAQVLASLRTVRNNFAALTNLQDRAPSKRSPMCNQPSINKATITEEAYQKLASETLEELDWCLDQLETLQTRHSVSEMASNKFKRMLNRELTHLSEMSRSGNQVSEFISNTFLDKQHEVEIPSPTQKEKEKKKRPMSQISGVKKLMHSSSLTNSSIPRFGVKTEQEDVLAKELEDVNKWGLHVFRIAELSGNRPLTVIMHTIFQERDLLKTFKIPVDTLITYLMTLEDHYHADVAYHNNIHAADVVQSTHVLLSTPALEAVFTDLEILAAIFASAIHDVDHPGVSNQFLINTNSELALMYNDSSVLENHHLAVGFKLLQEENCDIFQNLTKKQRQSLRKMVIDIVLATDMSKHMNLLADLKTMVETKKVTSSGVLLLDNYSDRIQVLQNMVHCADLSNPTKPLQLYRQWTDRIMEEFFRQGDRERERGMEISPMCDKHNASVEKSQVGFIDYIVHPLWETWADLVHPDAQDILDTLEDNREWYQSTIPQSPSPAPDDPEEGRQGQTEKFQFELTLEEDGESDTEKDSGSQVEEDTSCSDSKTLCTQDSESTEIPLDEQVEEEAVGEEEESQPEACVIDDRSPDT
PDE4B2, sequence (Q07343 other isoform, or with tags, fused parts or gaps, species assumed): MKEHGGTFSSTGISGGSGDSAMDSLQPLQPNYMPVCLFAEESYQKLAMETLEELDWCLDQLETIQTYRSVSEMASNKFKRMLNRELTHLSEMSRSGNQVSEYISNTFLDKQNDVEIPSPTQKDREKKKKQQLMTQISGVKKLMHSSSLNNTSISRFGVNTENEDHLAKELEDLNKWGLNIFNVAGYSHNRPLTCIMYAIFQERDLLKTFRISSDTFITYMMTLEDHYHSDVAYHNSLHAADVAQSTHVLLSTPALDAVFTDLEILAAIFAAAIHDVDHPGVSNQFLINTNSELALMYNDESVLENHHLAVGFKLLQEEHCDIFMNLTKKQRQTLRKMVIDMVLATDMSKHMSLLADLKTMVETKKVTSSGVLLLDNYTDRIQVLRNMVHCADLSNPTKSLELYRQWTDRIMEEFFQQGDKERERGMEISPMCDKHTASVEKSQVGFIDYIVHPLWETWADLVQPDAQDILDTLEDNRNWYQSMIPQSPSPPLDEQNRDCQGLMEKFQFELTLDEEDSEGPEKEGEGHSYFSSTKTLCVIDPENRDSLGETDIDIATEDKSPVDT

Structure (SMILES) | pIC50 [1] | pIC50 [2]
COc1cccc2c1ncc1c(=O)n(-c3cccc(Cl)c3)c(=O)n(C3CCN(S(C)(=O)=O)CC3)c12 [Example 92, 3-(3-Chloro-phenyl)-1-(1-methanesulfonyl-piperidin-4-yl)-7-methoxy-1H-pyrimido[5,4-c]quinoline-2,4-dione] | 6.82 | 7.17
COc1cccc2c1ncc1c(=O)n(-c3cccc(Cl)c3)c(=O)n([C@H]3CC[C@H](NS(C)(=O)=O)CC3)c12 [Example 127, N-{4-[(S)-3-(3-Chloro-phenyl)-7-methoxy-2,4-dioxo-3,4-dihydro-2H-pyrimido[5,4-c]quinolin-1-yl]-trans-cyclohexyl}-methanesulfonamide] | 7.14 | 7.60
CCn1c(=O)c2cnc3c(C(C)C)cccc3c2n(C2CCCC2)c1=O [Example 33, 1-Cyclopentyl-3-ethyl-7-isopropyl-1H-pyrimido[5,4-c]quinoline-2,4-dione] | 4.60 | 4.91
COc1cccc2c1ncc1c(=O)n(-c3cccc(C)c3)c(=O)n(C3CCCC3)c12 [Example 54, 1-Cyclopentyl-7-methoxy-3-m-tolyl-1H-pyrimido[5,4-c]quinoline-2,4-dione] | 6.47 | 7.11
COc1cccc2c1ncc1c(=O)n(-c3ccc4c(c3)OCO4)c(=O)n(C3CCCC3)c12 [Example 84, 3-Benzo[1,3]dioxol-5-yl-1-cyclopentyl-7-methoxy-1H-pyrimido[5,4-c]quinoline-2,4-dione] | 6.08 | 6.29
COc1cccc2c1ncc1c(=O)n(-c3cccc(Cl)c3)c(=O)n([C@@H]3CCN(S(C)(=O)=O)C3)c12 [Example 115, 3-(3-Chloro-phenyl)-1-((R)-1-methanesulfonyl-pyrrolidin-3-yl)-7-methoxy-1H-pyrimido[5,4-c]quinoline-2,4-dione] | 6.79 | 7.31
CCn1c(=O)c2cnc3c(Cl)cccc3c2n(C2CCCC2)c1=O [Example 30, 7-Chloro-1-cyclopentyl-3-ethyl-1H-pyrimido[5,4-c]quinoline-2,4-dione] | 4.60 | 4.77
COc1cccc2c1ncc1c(=O)n(-c3cc(C)cs3)c(=O)n(C3CCCC3)c12 [Example 51, 1-Cyclopentyl-7-methoxy-3-(4-methyl-thiophen-2-yl)-1H-pyrimido[5,4-c]quinoline-2,4-dione] | 6.21 | 6.90
CCCc1cccc2c1ncc1c(=O)n(CC)c(=O)n(C3CCCC3)c12 [Example 32, 1-Cyclopentyl-3-ethyl-7-propyl-1H-pyrimido[5,4-c]quinoline-2,4-dione] | 4.60 | 4.60
COc1cccc2c1ncc1c(=O)n(-c3cccc(Cl)c3)c(=O)n([C@H]3CCN(S(C)(=O)=O)C3)c12 [Example 118, 3-(3-Chloro-phenyl)-1-((S)-1-methanesulfonyl-pyrrolidin-3-yl)-7-methoxy-1H-pyrimido[5,4-c]quinoline-2,4-dione] | 6.69 | 7.10
CCS(=O)(=O)N1CCC(n2c(=O)n(-c3cccc(Cl)c3)c(=O)c3cnc4c(OC)cccc4c32)CC1 [Example 121, 3-(3-Chloro-phenyl)-1-(1-ethanesulfonyl-piperidin-4-yl)-7-methoxy-1H-pyrimido[5,4-c]quinoline-2,4-dione] | 7.23 | 7.59
COc1cccc2c1ncc1c(=O)n(-c3cccc(Cl)c3)c(=O)n([C@H]3CC[C@H](C(=O)O)CC3)c12 [Example 103, Trans-4-[3-(3-Chloro-phenyl)-7-methoxy-2,4-dioxo-3,4-dihydro-2H-pyrimido[5,4-c]quinolin-1-yl]-cyclohexanecarboxylic acid.hydrochloride] | 7.26 | 7.77
